Calls of active or inactive are those of the source. The rule behind the calls is not given here.
Columns and labels:
[1] = target: T1, Sodium/hydrogen exchanger 3 (Homo sapiens, UniProt P48764); test: Inhibition of human NHE3 expressed in opossum kidney cells assessed as reduction in Na-HEPES buffer-mediated pH recovery in presence of NEH1 inhibitor ethyl isopropyl amiloride by BCECF-AM dye based fluorescence assay; type: cell-based, Kidney epithelial cell
T1 sequence (P48764 whole entry): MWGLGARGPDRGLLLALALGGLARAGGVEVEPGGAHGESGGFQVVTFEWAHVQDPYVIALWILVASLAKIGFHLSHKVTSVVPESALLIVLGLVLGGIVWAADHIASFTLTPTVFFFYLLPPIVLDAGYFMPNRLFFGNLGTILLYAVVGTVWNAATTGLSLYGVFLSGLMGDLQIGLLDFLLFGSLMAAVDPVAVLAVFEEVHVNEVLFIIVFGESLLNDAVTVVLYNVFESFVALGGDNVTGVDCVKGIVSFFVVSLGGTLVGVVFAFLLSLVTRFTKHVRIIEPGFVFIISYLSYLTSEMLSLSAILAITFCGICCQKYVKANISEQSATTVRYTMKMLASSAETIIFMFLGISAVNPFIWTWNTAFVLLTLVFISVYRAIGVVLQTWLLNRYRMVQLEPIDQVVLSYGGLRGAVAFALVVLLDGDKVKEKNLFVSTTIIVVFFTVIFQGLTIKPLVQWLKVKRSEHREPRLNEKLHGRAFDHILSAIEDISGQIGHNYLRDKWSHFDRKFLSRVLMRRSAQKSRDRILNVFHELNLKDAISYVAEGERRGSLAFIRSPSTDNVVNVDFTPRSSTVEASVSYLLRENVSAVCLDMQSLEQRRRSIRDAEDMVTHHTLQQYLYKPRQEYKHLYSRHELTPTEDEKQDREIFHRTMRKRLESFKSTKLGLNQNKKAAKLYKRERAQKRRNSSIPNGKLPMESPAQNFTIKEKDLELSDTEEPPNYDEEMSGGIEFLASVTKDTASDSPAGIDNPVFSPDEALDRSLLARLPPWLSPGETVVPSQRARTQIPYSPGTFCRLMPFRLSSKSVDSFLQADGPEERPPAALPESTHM

[2] = Cmax in Sprague-Dawley rat at 11 mg/kg, po administered via gavage by LC-MS/MS analysis; type: ADME, organism-based; set-up: dose 11 mg/kg, route po; settings: in vivo
[3] = In vivo inhibition of NEH3 in Sprague-Dawley rat assessed as fecal form score at 3 mg/kg, po administered via gavage measured after 6 hrs; type: functional
[4] = In vivo inhibition of NEH3 in Sprague-Dawley rat assessed as fecal water content at 3 mg/kg, po administered via gavage measured after 6 hrs; type: functional; set-up: scale not given: the % may be the effect or the level left
[5] = AUC in Sprague-Dawley rat at 11 mg/kg, po administered via gavage by LC-MS/MS analysis; settings: in vivo
[6] = In vivo inhibition of NEH3 in Sprague-Dawley rat assessed as sodium excretion in urine at 3 mg/kg, po administered via gavage measured after 16 hrs by ion chromatography relative to control; set-up: scale not given: the % may be the effect or the level left
Rattus norvegicus [7] = test: In vivo inhibition of NEH3 in Sprague-Dawley rat assessed as reduction in sodium excretion in urine at 0.1 to 3 mg/kg, po administered via gavage measured after 16 hrs by ion chromatography; type: functional, organism-based; settings: dose 0.1-3 mg/kg
[8] = In vivo inhibition of NEH3 in Sprague-Dawley rat assessed as increase in fecal water content at 0.1 to 3 mg/kg, po administered via gavage measured after 6 hrs; type: functional; set-up: scale not given: the % may be the effect or the level left; settings: dose 0.1-3 mg/kg
[9] = Drug recovery in Sprague-Dawley rat feces at 0.1 mg/kg, po administered via gavage measured after 72 hrs by LC-MS/MS analysis; type: ADME, organism-based; settings: faeces, read-out: Drug recovery
[10] = Drug metabolism in Sprague-Dawley rat feces at 0.1 mg/kg, po administered via gavage measured after 72 hrs by LC-MS/MS analysis; type: ADME, organism-based; settings: in vivo
[11] = Cmax in Sprague-Dawley rat at 30 mg/kg, po administered via gavage by LC-MS/MS analysis; type: ADME, organism-based; set-up: dose 30 mg/kg, route po; settings: in vivo
[12] = Drug metabolism in Sprague-Dawley rat at 30 mg/kg, po administered via gavage by LC-MS/MS analysis; type: ADME, organism-based; settings: in vivo
hERG (KCNH2) = hERG (KCNH2) (Homo sapiens, UniProt Q12809); test: Inhibition of human ERG at 10 uM relative to control; type: toxicity
[13] = target: Sodium/hydrogen exchanger 3 (Rattus norvegicus, UniProt P26433); test: Inhibition of rat NHE3 expressed in opossum kidney cells assessed as reduction in Na-HEPES buffer-mediated pH recovery in presence of NEH1 inhibitor ethyl isopropyl amiloride by BCECF-AM dye based fluorescence assay; type: cell-based, Kidney epithelial cell
[14] = Cmax in Sprague-Dawley rat at 1.5 mg/kg, po administered via gavage by LC-MS/MS analysis; type: ADME, organism-based; set-up: dose 1.5 mg/kg, route po; settings: in vivo
Rattus norvegicus [15] = test: In vivo inhibition of NEH3 in Sprague-Dawley rat assessed as increase in cecum water content at 10 mg/kg, po administered via gavage measured after 6 hrs; type: functional, organism-based
Rattus norvegicus [16] = test: In vivo inhibition of NEH3 in Sprague-Dawley rat assessed as increase in colon water content at 10 mg/kg, po administered via gavage measured after 6 hrs; type: functional, organism-based
[17] = AUC in Sprague-Dawley rat at 1.5 mg/kg, po administered via gavage by LC-MS/MS analysis; settings: in vivo
[18] = Drug recovery in Sprague-Dawley rat feces at 3 mg/kg, po administered via gavage measured after 64 hrs by LC-MS/MS analysis; type: ADME, organism-based; settings: faeces, read-out: Drug recovery
[19] = Drug metabolism in Sprague-Dawley rat feces at 3 mg/kg, po administered via gavage measured after 64 hrs by LC-MS/MS analysis; type: ADME, organism-based; settings: in vivo
[20] = Oral bioavailability in Sprague-Dawley rat at 11 mg/kg administered via gavage by LC-MS/MS analysis; type: ADME, organism-based; settings: in vivo
[21] = Apparent permeability in MDCK cells at 10 uM measured after 60 mins by LC-MS/MS analysis; type: ADME, cell-based, Canis lupus familiaris; settings: dog, 1 h

Sequence of hERG (KCNH2) (Q12809 whole entry): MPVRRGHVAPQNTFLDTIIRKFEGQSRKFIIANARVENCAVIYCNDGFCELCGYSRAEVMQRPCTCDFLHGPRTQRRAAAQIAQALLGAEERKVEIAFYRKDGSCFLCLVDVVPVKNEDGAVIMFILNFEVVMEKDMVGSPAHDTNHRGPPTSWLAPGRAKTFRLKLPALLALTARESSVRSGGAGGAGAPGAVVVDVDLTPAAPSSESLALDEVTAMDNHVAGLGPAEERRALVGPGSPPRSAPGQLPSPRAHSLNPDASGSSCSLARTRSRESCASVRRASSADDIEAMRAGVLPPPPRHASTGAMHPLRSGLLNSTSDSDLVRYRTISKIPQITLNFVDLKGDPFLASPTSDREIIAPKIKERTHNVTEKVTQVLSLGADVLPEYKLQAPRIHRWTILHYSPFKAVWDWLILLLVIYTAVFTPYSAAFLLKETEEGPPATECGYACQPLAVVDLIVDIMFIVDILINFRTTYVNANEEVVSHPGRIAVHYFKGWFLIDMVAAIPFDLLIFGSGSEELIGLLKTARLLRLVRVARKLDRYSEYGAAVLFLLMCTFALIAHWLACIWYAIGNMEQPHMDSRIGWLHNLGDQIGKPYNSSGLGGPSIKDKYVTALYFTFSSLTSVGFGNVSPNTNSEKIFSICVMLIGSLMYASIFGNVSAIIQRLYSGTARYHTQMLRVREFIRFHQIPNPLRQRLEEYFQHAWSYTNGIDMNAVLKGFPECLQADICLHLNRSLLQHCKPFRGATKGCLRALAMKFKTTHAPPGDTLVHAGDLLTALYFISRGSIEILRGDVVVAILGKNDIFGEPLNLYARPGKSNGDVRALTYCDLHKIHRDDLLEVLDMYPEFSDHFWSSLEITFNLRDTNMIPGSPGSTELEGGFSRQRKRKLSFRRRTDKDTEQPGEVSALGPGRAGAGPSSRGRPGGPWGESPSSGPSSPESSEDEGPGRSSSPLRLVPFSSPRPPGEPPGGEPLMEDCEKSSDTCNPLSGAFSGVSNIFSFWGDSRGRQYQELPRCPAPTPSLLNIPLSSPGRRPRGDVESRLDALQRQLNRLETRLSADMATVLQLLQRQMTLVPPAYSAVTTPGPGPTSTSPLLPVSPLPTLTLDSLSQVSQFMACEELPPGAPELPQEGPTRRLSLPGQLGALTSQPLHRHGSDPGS
Sequence of Sodium/hydrogen exchanger 3 (Rattus norvegicus, UniProt P26433) (P26433 whole entry): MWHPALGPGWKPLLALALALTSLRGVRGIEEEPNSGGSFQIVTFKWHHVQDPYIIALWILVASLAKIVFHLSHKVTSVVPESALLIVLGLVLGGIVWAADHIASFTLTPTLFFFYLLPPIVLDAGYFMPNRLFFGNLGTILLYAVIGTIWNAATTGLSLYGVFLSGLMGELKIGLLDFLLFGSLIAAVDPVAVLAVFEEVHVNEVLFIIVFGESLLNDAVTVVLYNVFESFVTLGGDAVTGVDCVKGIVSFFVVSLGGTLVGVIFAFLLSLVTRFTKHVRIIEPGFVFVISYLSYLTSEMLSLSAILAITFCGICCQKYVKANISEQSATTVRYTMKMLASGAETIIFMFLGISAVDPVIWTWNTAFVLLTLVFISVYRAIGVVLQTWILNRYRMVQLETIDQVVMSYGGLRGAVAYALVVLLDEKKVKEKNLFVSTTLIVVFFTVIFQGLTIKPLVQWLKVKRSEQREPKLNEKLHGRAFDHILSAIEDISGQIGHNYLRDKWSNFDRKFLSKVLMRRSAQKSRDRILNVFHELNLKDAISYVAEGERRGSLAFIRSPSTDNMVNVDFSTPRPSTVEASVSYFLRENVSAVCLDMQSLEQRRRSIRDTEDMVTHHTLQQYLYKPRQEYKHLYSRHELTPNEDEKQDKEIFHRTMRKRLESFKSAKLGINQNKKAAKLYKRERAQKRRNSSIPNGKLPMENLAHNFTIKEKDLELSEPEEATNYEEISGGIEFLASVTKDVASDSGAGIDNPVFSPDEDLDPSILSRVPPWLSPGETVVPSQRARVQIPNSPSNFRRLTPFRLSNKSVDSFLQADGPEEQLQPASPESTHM

SMILES	IC50 [1]	Activity [3]	Activity [4]	Activity [6]	IC50 [13]	also measured
CN1Cc2c(Cl)cc(Cl)cc2C(c2cccc(S(=O)(=O)NCCOCCOCCNC(=O)NCCOCCOCCNS(=O)(=O)c3cccc(C4CN(C)Cc5c(Cl)cc(Cl)cc54)c3)c2)C1 (stereo not given)	2000 nM	1	50%	100%		Cmax [2]: < 5 ng/mL; AUC [5]: < 19 ng·h/mL
CN1Cc2c(Cl)cc(Cl)cc2[C@H](c2cccc(S(=O)(=O)NCCOCCOCCNC(=O)Nc3ccc(NC(=O)NCCOCCOCCNS(=O)(=O)c4cccc([C@@H]5CN(C)Cc6c(Cl)cc(Cl)cc65)c4)cc3)c2)C1	1.58 nM					inhibition (Rattus norvegicus [7]): Active; Activity [8]: 10%; dose excreted at 72 h [9]: 93%; Drug metabolism [10]: Metabolite_Notdetected; Cmax [11]: < 2 ng/mL; Drug metabolism [12]: Metabolite_Notdetected; inhibition at 10 µM (hERG (KCNH2)): < 50%
CN1Cc2c(Cl)cc(Cl)cc2[C@H](c2cccc(NC(=O)[C@H](O)[C@@H](O)[C@H](O)[C@H](O)CO)c2)C1	25.1 nM				39.8 nM	Cmax [14]: 6 ng/mL; inhibition (Rattus norvegicus [15]): Active; inhibition (Rattus norvegicus [16]): Active; AUC [17]: 12 ng·h/mL
CN1Cc2c(Cl)cc(Cl)cc2[C@H](c2cccc(S(=O)(=O)NCCOCCOCCNC(=O)CCC(=O)NCCOCCOCCNS(=O)(=O)c3cccc([C@@H]4CN(C)Cc5c(Cl)cc(Cl)cc54)c3)c2)C1						inhibition (Rattus norvegicus [7]): Active; Activity [8]: 10%; dose excreted at 72 h [9]: 46%; Drug metabolism [10]: Metabolite_Notdetected; Cmax ([11]; Sprague-Dawley, read-out: Cmax): < 2 ng/mL; Drug metabolism [12]: Metabolite_Notdetected; inhibition at 10 µM (hERG (KCNH2)): < 50%
CN1Cc2c(Cl)cc(Cl)cc2[C@H](c2cccc(S(=O)(=O)NCCOCCOCCOCCNC(=O)NCCOCCOCCOCCNS(=O)(=O)c3cccc([C@@H]4CN(C)Cc5c(Cl)cc(Cl)cc54)c3)c2)C1						inhibition (Rattus norvegicus [7]): Active; Activity [8]: 10%; dose excreted at 64 h [18]: 82%; Drug metabolism [19]: Metabolite_Detected; Cmax ([11]; Sprague-Dawley, read-out: Cmax): < 5 ng/mL; Drug metabolism [12]: Metabolite_Notdetected; inhibition at 10 µM (hERG (KCNH2)): < 50%
CN1Cc2c(Cl)cc(Cl)cc2[C@@H](c2cccc(NC(=O)[C@H](O)[C@@H](O)[C@H](O)[C@H](O)CO)c2)C1	2510 nM				7940 nM	
CN1Cc2c(Cl)cc(Cl)cc2[C@H](c2cccc(S(=O)(=O)NCCOCCOCCOCCNC(=O)NCCCNC(=O)NCCOCCOCCOCCNS(=O)(=O)c3cccc([C@@H]4CN(C)Cc5c(Cl)cc(Cl)cc54)c3)c2)C1						dose excreted at 64 h [18]: 96%; Drug metabolism [19]: Metabolite_Notdetected; Cmax ([11]; Sprague-Dawley, read-out: Cmax): < 15 ng/mL; Drug metabolism [12]: Metabolite_Notdetected; inhibition at 10 µM (hERG (KCNH2)): < 50%
CN1Cc2c(Cl)cc(Cl)cc2C(c2cccc(NC(=O)[C@H](O)[C@@H](O)[C@H](O)[C@H](O)CO)c2)C1 (mixture of isomers)	50.1 nM				39.8 nM	
CN1Cc2c(Cl)cc(Cl)cc2C(c2cccc(S(N)(=O)=O)c2)C1 (racemic)	631 nM					Cmax [2]: 159 ng/mL; F [20]: 98%; Papp [21]: >= 10 10^-6 cm/s; AUC [5]: 522 ng·h/mL
CN1Cc2c(Cl)cc(Cl)cc2C(c2cccc(S(=O)(=O)NCCOCCOCCNC(=O)NCCCCNC(=O)NCCOCCOCCNS(=O)(=O)c3cccc(C4CN(C)Cc5c(Cl)cc(Cl)cc54)c3)c2)C1 (racemic)		4.5	64%	22%	3.16 nM	
CN1Cc2c(Cl)cc(Cl)cc2C(c2cccc(S(=O)(=O)NCCOCCOCCNC(=O)Nc3ccc(NC(=O)NCCOCCOCCNS(=O)(=O)c4cccc(C5CN(C)Cc6c(Cl)cc(Cl)cc65)c4)cc3)c2)C1 (racemic)		3	60%	32%	7.94 nM	
CN1Cc2c(Cl)cc(Cl)cc2C(c2ccc(S(=O)(=O)NCCOCCOCCNC(=O)Nc3ccc(NC(=O)NCCOCCOCCNS(=O)(=O)c4ccc(C5CN(C)Cc6c(Cl)cc(Cl)cc65)cc4)cc3)cc2)C1 (racemic)		3	58%	29%		
CN1Cc2c(Cl)cc(Cl)cc2C(c2ccc(S(=O)(=O)NCCOCCOCCNC(=O)COCC(=O)NCCOCCOCCNS(=O)(=O)c3ccc(C4CN(C)Cc5c(Cl)cc(Cl)cc54)cc3)cc2)C1 (racemic)		2.5	59%	29%		
CN1Cc2c(Cl)cc(Cl)cc2C(c2cccc(S(=O)(=O)NCCCS(=O)(=O)O)c2)C1 (racemic)	1580 nM				50.1 nM	
CN1Cc2c(Cl)cc(Cl)cc2C(c2ccc(S(=O)(=O)NCCOCCOCCNC(=O)CCC(=O)NCCOCCOCCNS(=O)(=O)c3ccc(C4CN(C)Cc5c(Cl)cc(Cl)cc54)cc3)cc2)C1 (racemic)		3.5	60%	23%		
CN1Cc2c(Cl)cc(Cl)cc2C(c2cccc(S(=O)(=O)NCCOCCOCCOCCNC(=O)NCCCCNC(=O)NCCOCCOCCOCCNS(=O)(=O)c3cccc(C4CN(C)Cc5c(Cl)cc(Cl)cc54)c3)c2)C1 (racemic)		3	57%	50%		
CN(CC(=O)NCCOCCOCCNS(=O)(=O)c1ccc(C2CN(C)Cc3c(Cl)cc(Cl)cc32)cc1)CC(=O)NCCOCCOCCNS(=O)(=O)c1ccc(C2CN(C)Cc3c(Cl)cc(Cl)cc32)cc1 (racemic)		3	57%	45%		
CN1Cc2c(Cl)cc(Cl)cc2C(c2cccc(S(=O)(=O)NCCOCCOCCNS(=O)(=O)c3cccc(C4CN(C)Cc5c(Cl)cc(Cl)cc54)c3)c2)C1 (racemic)	5010 nM					
CN1Cc2c(Cl)cc(Cl)cc2C(c2cccc(S(=O)(=O)NCC(=O)O)c2)C1 (racemic)	100 nM				100 nM	
CN1Cc2c(Cl)cc(Cl)cc2C(c2ccc(S(=O)(=O)NCCOCCOCCNC(=O)NCCCCNC(=O)NCCOCCOCCNS(=O)(=O)c3ccc(C4CN(C)Cc5c(Cl)cc(Cl)cc54)cc3)cc2)C1 (racemic)		3	60%	14%		
CN1Cc2c(Cl)cc(Cl)cc2C(c2cccc(S(=O)(=O)NCCOCCOCCOCCNC(=O)Nc3ccc(NC(=O)NCCOCCOCCOCCNS(=O)(=O)c4cccc(C5CN(C)Cc6c(Cl)cc(Cl)cc65)c4)cc3)c2)C1 (racemic)		2	54%	42%	6310 nM	
CN1Cc2c(Cl)cc(Cl)cc2C(c2cccc(S(=O)(=O)NCCCP(=O)(O)O)c2)C1 (racemic)	5010 nM				63.1 nM	

Reference: ChEMBL document CHEMBL5143744, “Discovery of Tenapanor: A First-in-Class Minimally Systemic Inhibitor of Intestinal Na+/H+ Exchanger Isoform 3” (ACS Med Chem Lett, 2022)
